Columns and labels:
Type in all cases: in vivo
[1] = test system: pigweed (Amaranthus retroflexus); assay: Test A postemergence
Summary of the method: (§1)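 Each rating is a visual injury score from 0 to 100 given about 10 d after treatment, judged against untreated controls kept alongside in the greenhouse. In loam soil–sand blend, seeds got a preemergence directed soil spray, while postemergence plants were 2 to 10 cm tall at spraying.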

[2] = test system: blackgrass (Alopecurus myosuroides); assay: Test A postemergence
Summary of the method: as §1

[3] = test system: wheat (Triticum aestivum); assay: Test A postemergence
Summary of the method: as §1

[4] = test system: barnyardgrass (Echinochloa crus-galli); assay: Test A postemergence
Summary of the method: as §1

corn (Zea mays) = assay: Test A postemergence
Summary of the method: as §1

[5] = test system: Galium (catchweed bedstraw, Galium aparine); assay: Test A postemergence
Summary of the method: as §1

[6] = test system: ragweed (common ragweed, Ambrosia elatior); assay: Test A postemergence
Summary of the method: as §1

[7] = test system: ryegrass, Italian (Italian ryegrass, Lolium multiflorum); assay: Test A postemergence
Summary of the method: as §1

Kochia (Kochia scoparia) [8] = assay: Test A postemergence
Summary of the method: as §1

[9] = test system: giant foxtail (Setaria faberii); assay: Test A postemergence
Summary of the method: as §1

[10] = test system: blackgrass (Alopecurus myosuroides); assay: Test C preemergence; conditions: for Plant response rating (scale of 0 to 100), Blackgrass: 31 g ai/ha, 0 is no effect, 100 is complete control; for Plant response rating, Blackgrass: scale 0 to 100, 0 no effect, 100 complete control
Text: Seeds of plant species selected from blackgrass (Alopecurus myosuroides), ryegrass, Italian (Italian ryegrass, Lolium multiflorum), wheat (winter wheat, Triticum aestivum), Galium (catchweed bedstraw, Galium aparine), corn (Zea mays), crabgrass, large (large crabgrass, Digitaria sanguinalis), foxtail, giant (giant foxtail, Setaria faberii), johnsongrass (Sorghum halepense), lambsquarters (Chenopodium album), morningglory (Ipomoea coccinea), nutsedge, yellow (yellow nutsedge, Cyperus esculentus), pigweed (Amaranthus retroflexus), ragweed (common ragweed, Ambrosia elatior), soybean (Glycine max), barnyardgrass (Echinochloa crus-galli), oilseed rape (Brassica napus), waterhemp (common waterhemp, Amaranthus rudis) and velvetleaf (Abutilon theophrasti) were planted into a blend of loam soil and sand and treated preemergence with test chemicals formulated in a non-phytotoxic solvent mixture which included a surfactant.
At the same time, plants selected from these crop and weed species and also Kochia (Kochia scoparia), oat, wild (wild oat, Avena fatua), and chickweed (common chickweed, Stellaria media) were planted in pots containing Sunshine Redi-Earth® planting medium comprising spaghnum peat moss, vermiculite, starter nutrients and dolomitic limestone and treated with postemergence applications of test chemicals formulated in the same manner. Plants ranged in height from 2 to 18 cm (1- to 4-leaf stage) for postemergence treatments. Treated plants and controls were maintained in a greenhouse for 13 to 15 d, after which time all species were compared to controls and visually evaluated. Plant response ratings, summarized in Table C, are based on a scale of 0 to 100 where 0 is no effect and 100 is complete control. A dash (-) response means no test result.

[11] = test system: barnyardgrass (Echinochloa crus-galli); assay: Test B flooded paddy test; conditions: Flood, 250 g ai/ha; 0 to 100 scale where 0 is no effect and 100 is complete control; 13 to 15 d
Summary of the method: (§2)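 Response scored visually against untreated controls, 0 = no effect and 100 = complete control, 13–15 d after treatment in the greenhouse. Compounds added to paddy water held 3 cm above soil surface. Treatment given at 2-leaf stage.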

[12] = test system: ducksalad (Heteranthera limosa); assay: Test B flooded paddy test; conditions: Flood, 250 g ai/ha; 0 to 100 scale where 0 is no effect and 100 is complete control; 13 to 15 d
Summary of the method: as §2

rice (Oryra sativa) = assay: Test B flooded paddy test; conditions: Flood, 250 g ai/ha; 0 to 100 scale where 0 is no effect and 100 is complete control; 13 to 15 d
Summary of the method: as §2

[13] = test system: sedge, umbrella (small-flower umbrella sedge, Cyperus difformis); assay: Test B flooded paddy test; conditions: Flood, 250 g ai/ha; 0 to 100 scale where 0 is no effect and 100 is complete control; 13 to 15 d
Summary of the method: as §2

[14] = test system: pigweed (Amaranthus retroflexus); assay: Test A preemergence
[15] = test system: barnyardgrass (Echinochloa crus-galli); assay: Test A preemergence
Summary of the method: as §1

[16] = test system: ragweed (common ragweed, Ambrosia elatior); assay: Test A preemergence
Summary of the method: as §1

[17] = test system: ryegrass, Italian (Italian ryegrass, Lolium multiflorum); assay: Test A preemergence
Summary of the method: as §1

Kochia (Kochia scoparia) [18] = assay: Test A preemergence
Summary of the method: as §1

[19] = test system: giant foxtail (Setaria faberii); assay: Test A preemergence
Summary of the method: as §1

[20] = 125 g ai/ha, postemergence, visual rating after approx. 10 d, 0 to 100 scale (0 no effect, 100 complete control)
[21] = 500 g ai/ha, postemergence, visual injury, 0 to 100 scale (0 no effect, 100 complete control), approx. 10 d
[22] = 125 g ai/ha, Preemergence, visual injury after approximately 10 d, 0 to 100 scale where 0 is no effect and 100 is complete control
[23] = 500 g ai/ha, preemergence, 0 to 100 scale, 0 = no effect, 100 = complete control
[24] = Postemergence, 500 g ai/ha, 0 to 100 scale where 0 is no effect and 100 is complete control

Cc1cccc(C2CN(C)C(=O)C2C(=O)Nc2cccc(F)c2F)c1 (stereo not shown) [Compound 667]
40: Plant response rating, Wheat [3, 20] | Plant response rating, Kochia (Kochia (Kochia scoparia) [18]; [22])
75: Plant response rating, Barnyardgrass [11]
60: Plant response rating, Blackgrass [2, 20] | Plant response rating, Ryegrass, Italian [7, 20] | Plant response rating, Kochia (Kochia (Kochia scoparia) [8]; [21]) | Plant response rating, Ragweed [16, 22]
100: Plant response rating, Foxtail, Giant [19, 23]
85: Plant response rating, Blackgrass ([10]; 125 g ai/ha)
0: Plant response rating, Pigweed [1, 20] | Plant response rating, Pigweed [1, 21] | Plant response rating, Ragweed [6, 20] | Plant response rating, Sedge, Umbrella [13]
10: Plant response rating, Rice (rice (Oryra sativa))
95: Plant response rating, Blackgrass ([10]; 250 g ai/ha)
80: Plant response rating, Corn (corn (Zea mays); [21]) | Plant response rating, Ryegrass, Italian [7, 21] | Plant response rating, Blackgrass ([10]; 62 g ai/ha) | Plant response rating, Ryegrass, Italian [17, 22]
20: Plant response rating, Pigweed [14, 22]
90: Plant response rating, Barnyardgrass [4, 20] | Plant response rating, Barnyardgrass [4, 21] | Plant response rating, Foxtail, Giant [9, 20] | Plant response rating, Foxtail, Giant [9, 21] | Plant response rating, Ducksalad [12] | Plant response rating, Barnyardgrass [15, 22] | Plant response rating, Barnyardgrass [15, 23] | Plant response rating, Ryegrass, Italian [17, 23] | Plant response rating, Foxtail, Giant [19, 22]
70: Plant response rating, Blackgrass [2, 21] | Plant response rating, Wheat [3, 21] | Plant response rating, Corn (corn (Zea mays); [20]) | Plant response rating, Ragweed [16, 23] | Plant response rating, Kochia (Kochia (Kochia scoparia) [18]; [23])
50: Plant response rating, Galium [5, 20] | Plant response rating, Galium [5, 21] | Plant response rating, Ragweed [6, 21] | Plant response rating, Kochia (Kochia (Kochia scoparia) [8]; [20]) | Plant response rating (scale of 0 to 100), Blackgrass [10] | Plant response rating, Pigweed [14, 23]

CN1CC(c2cccc(OC(F)F)c2)C(C(=O)Nc2ccccc2F)C1=O (stereo not shown) [Compound 618]
85: Plant response rating, Barnyardgrass [11]
40: Plant response rating, Ryegrass, Italian [7, 20] | Plant response rating, Kochia (Kochia (Kochia scoparia) [8]; [20])
50: Plant response rating, Blackgrass [2, 20] | Plant response rating, Wheat [3, 20] | Plant response rating, Galium [5, 20] | Plant response rating, Ryegrass, Italian [7, 24] | Plant response rating, Pigweed [14, 22] | Plant response rating, Ryegrass, Italian [17, 22]
0: Plant response rating, Pigweed [1, 20] | Plant response rating, Ragweed [6, 20] | Plant response rating (scale of 0 to 100), Blackgrass [10] | Plant response rating, Sedge, Umbrella [13]
100: Plant response rating, Ducksalad [12] | Plant response rating, Foxtail, Giant [19, 23]
60: Plant response rating, Blackgrass [2, 24] | Plant response rating, Galium [5, 24] | Plant response rating, Kochia (Kochia (Kochia scoparia) [8]; [24]) | Plant response rating, Blackgrass ([10]; 125 g ai/ha)
10: Plant response rating, Blackgrass ([10]; 62 g ai/ha) | Plant response rating, Rice (rice (Oryra sativa))
90: Plant response rating, Barnyardgrass [4, 20] | Plant response rating, Barnyardgrass [4, 24] | Plant response rating, Foxtail, Giant [9, 20] | Plant response rating, Foxtail, Giant [9, 24] | Plant response rating, Pigweed [14, 23] | Plant response rating, Barnyardgrass [15, 22] | Plant response rating, Barnyardgrass [15, 23] | Plant response rating, Ryegrass, Italian [17, 23] | Plant response rating, Kochia (Kochia (Kochia scoparia) [18]; [22]) | Plant response rating, Kochia (Kochia (Kochia scoparia) [18]; [23]) | Plant response rating, Foxtail, Giant [19, 22]
80: Plant response rating, Corn (corn (Zea mays); [20]) | Plant response rating, Corn (corn (Zea mays); [24]) | Plant response rating, Blackgrass ([10]; 250 g ai/ha)
30: Plant response rating, Pigweed [1, 24]
20: Plant response rating, Ragweed [6, 24]
70: Plant response rating, Wheat [3, 24] | Plant response rating, Ragweed [16, 23]

Source: patent publication US12077503B2, “Substituted cyclic amides and their use as herbicides” (FMC CORPORATION, priority 2015, dated 2024)
